Here are results for 13 compounds from publication PMC9966181, “Polyphenols with Anti-Inflammatory Properties: Synthesis and Biological Activity of Novel Curcumin Derivatives” (International Journal of Molecular Sciences, 2023).

What all share (assay type): cell-based, C57BL/6 mice
One data set relates to PGE2 production. Kind of data set: Inhibition of PGE2 production in LPS-stimulated peritoneal macrophages (ELISA). The settings on record: for IC50: peritoneal macrophages, compounds 1 h before 10 ng/mL LPS, supernatant after 6 h, average of three independent experiments in duplicate ± S.D.; for Relative activity on PGE2 production (SAR ranking): ranking among the monofunctionalized, discussion. On the procedure:
(§1) Peritoneal macrophages were obtained four days after i.p. instillation of 2 mL of thioglycollate 3%, by peritoneal washing with chilled RPMI. Cells were seeded in RPMI with 10% FCS at 2 × 10^5/well in 96-well plates and cultured for 2 h at 37 °C in an atmosphere of 5% CO2. Cells were treated with compounds 1–15 (30 μM) 1 h before the stimulus with 10 ng/mL of LPS. For dose response experiments, cells were pre-treated with different concentrations (1, 3, 10, 30 μM) of compounds 1, 2, 4, 5, 6, 8, 10, 13, and 15 before the stimulation with 10 ng/mL of LPS. All the treatments and controls were performed in the presence of 0.5% of DMSO, as compounds are solubilized in this solvent. Supernatants were collected 6h after the stimulus with LPS.
(§2) Peritoneal macrophages were cultured as previously described. The concentrations of IL-6 were determined by ELISA (DuoSet kit, R&D System) according to the manufacturer’s protocol. The concentration of prostaglandin E2 (PGE2) was determined using the “Prostaglandin E2 ELISA Kit - Monoclonal” from Cayman CHEMICAL, according to the manufacturer’s protocol.
(§3) Results were analyzed using the statistical software package GraphPad Prism 5. Data are presented as means ± S.E.M. Statistical analysis was performed by Student’s t-test. A significant difference between groups was considered when p < 0.05. The half maximal inhibitory concentration (IC50) was calculated by adjusting a sigmoidal dose–response curve following GraphPad Prism5 procedure.
(In an ELISA, binding on a coated surface is turned into a signal by an enzyme label.)

For another data set, the system named is IL-6 production. Put plainly: Inhibition of IL-6 production in LPS-stimulated peritoneal macrophages (ELISA). As to conditions: for IC50: peritoneal macrophages, compounds 1 h before 10 ng/mL LPS, supernatant after 6 h, average of three independent experiments in duplicate ± S.D.; for Relative activity on IL-6 production (SAR ranking): ranking in discussion; for Dose-dependent inhibition of IL-6 production: 1, 3, 10, 30 μM, 10 ng/mL LPS; for Dose-dependent inhibition of IL-6 production / Effect on production of IL-6 at single concentration: 6 h; for Effect on production of IL-6 at single concentration: 30 μM, 1 h before 10 ng/mL LPS. On the procedure: as §1, §2, §3

The subject of another data set is Peritoneal macrophages. Kind of data set: Cytotoxicity assay (MTT) on peritoneal macrophages. As to conditions: 30 μM, after supernatant collection. On the procedure:
as §1
After the removal of supernatants, 100 µL of MTT (0.5 mg/mL) dissolved in RPMI were added to each well and cells were incubated overnight at 37 °C. The supernatants were removed and formazan crystals were dissolved in 100 µL of 0.04 M HCl in isopropanol. The color was analyzed at 570 nm using an ELISA plate reader. The percent of viable cells was calculated using the formula: % viability: [(OD sample) × 100%]/(OD control). The non-stimulated cells, cultured in medium plus 10% FCS and 0.5% DMSO, represented 100% viability.

[1] abbreviates: Mus musculus, Peritoneal macrophage.

The term IC50 denotes the concentration at which inhibition is half-maximal. Read a low IC50 as higher potency. For the compound “4-((1E,4Z,6E)-5-Hydroxy-7-(4-hydroxy-3-methoxyphenyl)-3-oxohepta-1,4,6-trien-1-yl)-2-methoxyphenyl (1,2,3,4-tetrahydronaphthalen-1-yl) Succinate [Compound 15]”, the “Effect on PGE2 production at 3 μM” value in the data set with PGE2 production (3 μM) is given as “significantly reduced PGE2 production”. Moreover, in the data set on PGE2 production, 3.07 ± 0.72 µM corresponded to half-maximal inhibition (IC50) and the “Relative activity on PGE2 production (SAR ranking)” value is listed as “showed activity”. In addition, in the data set on IL-6 production, the IC50 came to 10.4 ± 0.75 µM and the “Relative activity on IL-6 production (SAR ranking)” value is “less active”.

With `COc1cc(/C=C/C(O)=C/C(=O)/C=C/c2ccc(OCc3ccccc3)c(OC)c2)ccc1O` [Compound 2, reference compound], in the data set on PGE2 production (1 μM), the “Effect on PGE2 production at 1 μM” value is given as “showed an effect”. In addition, in the data set with PGE2 production (1, 3, 10, 30 μM, 10 ng/mL LPS, 6 h), the “Dose-dependent inhibition of PGE2 production” value is on record as “inhibitory effect on PGE2 production at all concentrations tested”. The IC50 with PGE2 production (setting [1]) is 0.51 ± 0.08 µM; in the data set with IL-6 production (setting [1]), 3.59 ± 0.27 µM. The “Effect on IL-6 production at lowest concentration” value in the data set on IL-6 production (1 μM) is on record as “statistically significant inhibitory effect”. The “Dose-dependent inhibition of IL-6 production” value with IL-6 production is reported as “inhibited the production of IL-6 in a dose-dependent manner”.

In the case of `COc1cc(/C=C/C(=O)/C=C(O)/C=C/c2ccc(OC(=O)CCC(=O)OC3C4CC5CC(C4)CC3C5)c(OC)c2)ccc1OC(=O)CCC(=O)OC1C2CC3CC(C2)CC1C3` (centres unmarked) [Compound 3, Di((1r,3r,5r,7r)-adamantan-2-yl) O,O′-(((1E,3Z,6E)-3-hydroxy-5-oxohepta-1,3,6-triene-1,7-diyl)bis(2-methoxy-4,1-phenylene)) Disuccinate], in the data set on IL-6 production, the “Effect on production of IL-6 at single concentration” value (shortened to “Effect on production”) is given as “did not show this activity”.

`COc1cc(/C=C/C(O)=C/C(=O)/C=C/c2ccc(OC(=O)CCC(=O)OC3C4CC5CC(C4)CC3C5)c(OC)c2)ccc1O` (centres unmarked) [Compound 4, (1r,3r,5r,7r)-Adamantan-2-yl (4-((1E,4Z,6E)-5-hydroxy-7-(4-hydroxy-3-methoxyphenyl)-3-oxohepta-1,4,6-trien-1-yl)-2-methoxyphenyl) Succinate]: the IC50 in the data set on PGE2 production (setting [1]) was found to be 4.5 ± 3.18 µM. Moreover, the “Relative activity on PGE2 production (SAR ranking)” value in the data set on PGE2 production is recorded as “lowest activity”. Besides, in the data set on IL-6 production, the “Effect on production” value is recorded as “inhibited the production of IL-6” and the “Relative activity on IL-6 production (SAR ranking)” value is reported as “less active”. Moreover, in the data set on IL-6 production (setting [1]), the IC50 is 10.5 ± 0.6 µM.

`COc1cc(/C=C/C(O)=C/C(=O)/C=C/c2ccc(OC(=O)CCC(=O)OCc3ccc4c(c3)C(=O)c3ccccc3C4=O)c(OC)c2)ccc1O` [Compound 5, (9,10-Dioxo-9,10-dihydroanthracen-2-yl)methyl (4-((1E,4Z,6E)-5-hydroxy-7-(4-hydroxy-3-methoxyphenyl)-3-oxohepta-1,4,6-trien-1-yl)-2-methoxyphenyl) Succinate]: the concentration for half-maximal inhibition (IC50) in the data set with PGE2 production (setting [1]) worked out at 2.6 ± 1.75 µM; in the data set with IL-6 production (setting [1]), 7.11 ± 0.75 µM. In addition, the “Relative activity on PGE2 production (SAR ranking)” value with PGE2 production is recorded as “showed activity”. Besides, in the data set with IL-6 production, the “Relative activity on IL-6 production (SAR ranking)” value was “less active”.

As to `COc1cc(/C=C/C(O)=C/C(=O)/C=C/c2ccc(OC(=O)CCC(=O)OC(c3ccccc3)c3ccccc3)c(OC)c2)ccc1O` [Compound 6, Benzhydryl (4-((1E,4Z,6E)-5-hydroxy-7-(4-hydroxy-3-methoxyphenyl)-3-oxohepta-1,4,6-trien-1-yl)-2-methoxyphenyl) Succinate], the values for the half-inhibitory concentration (IC50) in the data set on PGE2 production (setting [1]) and in the data set on IL-6 production (setting [1]) were 4.43 ± 0.85 µM and 4.21 ± 0.73 µM, respectively. Also, the “Relative activity on PGE2 production (SAR ranking)” value in the data set on PGE2 production is recorded as “showed activity”. Also, the “Effect on production” value in the data set on IL-6 production is reported as “inhibited the production of IL-6”.

Take `COc1cc(/C=C/C(=O)/C=C(O)/C=C/c2ccc(OC(=O)CCC(=O)OC(c3ccccc3)C3CCCCC3)c(OC)c2)ccc1OC(=O)CCC(=O)OC(c1ccccc1)C1CCCCC1` (centres unmarked) [Compound 7, Bis(cyclohexyl(phenyl)methyl) O,O′-(((1E,3Z,6E)-3-hydroxy-5-oxohepta-1,3,6-triene-1,7-diyl)bis(2-methoxy-4,1-phenylene)) Disuccinate]: in the data set with IL-6 production, the “Effect on production” value is reported as “did not show this activity”.

Turning to `COc1cc(/C=C/C(O)=C/C(=O)/C=C/c2ccc(OC(=O)CCC(=O)OC(c3ccccc3)C3CCCCC3)c(OC)c2)ccc1O` (centres unmarked) [Compound 8, Cyclohexyl(phenyl)methyl (4-((1E,4Z,6E)-5-hydroxy-7-(4-hydroxy-3-methoxyphenyl)-3-oxohepta-1,4,6-trien-1-yl)-2-methoxyphenyl) Succinate], the IC50 with PGE2 production (setting [1]) turned out to be 5.9 ± 2.38 µM; with IL-6 production (setting [1]) it was 1.94 ± 0.66 µM. In addition, the “Relative activity on PGE2 production (SAR ranking)” value in the data set on PGE2 production is “lowest activity”. The “Effect on production” value with IL-6 production is on record as “not statistically significant”.

In the case of `COc1cc(/C=C/C(=O)/C=C(O)/C=C/c2ccc(OC(=O)CCC(=O)OC3c4ccccc4-c4ccccc43)c(OC)c2)ccc1OC(=O)CCC(=O)OC1c2ccccc2-c2ccccc21` [Compound 9, Di(9H-fluoren-9-yl) O,O′-(((1E,3Z,6E)-3-hydroxy-5-oxohepta-1,3,6-triene-1,7-diyl)bis(2-methoxy-4,1-phenylene)) Disuccinate], the “Effect on production” value with IL-6 production is “did not show this activity”.

As to `COc1cc(/C=C/C(O)=C/C(=O)/C=C/c2ccc(OC(=O)CCC(=O)OC3c4ccccc4-c4ccccc43)c(OC)c2)ccc1O` [Compound 10, 9H-Fluoren-9-yl (4-((1E,4Z,6E)-5-hydroxy-7-(4-hydroxy-3-methoxyphenyl)-3-oxohepta-1,4,6-trien-1-yl)-2-methoxyphenyl) Succinate], the 50% inhibitory concentration (IC50) with PGE2 production (setting [1]) turned out to be 5.93 ± 2.29 µM; in the data set on IL-6 production (setting [1]), 3.6 ± 0.21 µM. The “Relative activity on PGE2 production (SAR ranking)” value in the data set on PGE2 production is “lowest activity”. Also, in the data set with IL-6 production, the “Effect on production” value is on record as “inhibited the production of IL-6”.

Regarding `COc1cc(/C=C/C(O)=C/C(=O)/C=C/c2ccc(OC(=O)CCC(=O)O[C@@H]3C[C@H](C)CC[C@H]3C(C)C)c(OC)c2)ccc1OC(=O)CCC(=O)O[C@H]1C[C@@H](C)CC[C@@H]1C(C)C` [Compound 12, O,O′-(((1E,3Z,6E)-3-Hydroxy-5-oxohepta-1,3,6-triene-1,7-diyl)bis(2-methoxy-4,1-phenylene)) bis((1R,2S,5R)-2-isopropyl-5-methylcyclohexyl) Disuccinate], in the data set with IL-6 production, the “Effect on production” value is recorded as “did not show this activity”.

In the case of `COc1cc(/C=C/C(O)=C/C(=O)/C=C/c2ccc(OC(=O)CCC(=O)O[C@@H]3C[C@H](C)CC[C@H]3C(C)C)c(OC)c2)ccc1O` [Compound 13, 4-((1E,4Z,6E)-5-Hydroxy-7-(4-hydroxy-3-methoxyphenyl)-3-oxohepta-1,4,6-trien-1-yl)-2-methoxyphenyl((1R,2S,5R)-2-isopropyl-5-methylcyclohexyl) Succinate], the IC50 in the data set with PGE2 production (setting [1]) is 5.42 ± 2.04 µM; in the data set with IL-6 production (setting [1]), 10.6 ± 0.33 µM. In addition, the “Relative activity on PGE2 production (SAR ranking)” value in the data set on PGE2 production is recorded as “lowest activity”. The “Relative activity on IL-6 production (SAR ranking)” value in the data set on IL-6 production is reported as “less active”.

In turn, “Curcumin [Compound 1, reference compound]” displayed an IC50 in the data set on PGE2 production of 1.34 ± 0.067 µM. In the data set with IL-6 production, the “Dose-dependent inhibition of IL-6 production” value is given as “inhibited the production of IL-6 in a dose-dependent manner” and the midpoint of inhibition, the IC50, lay at 6.85 ± 2.5 µM. Moreover, the “Cytotoxicity / cell viability (MTT)” value in the data set on Peritoneal macrophages was “affected cell viability”.
